The results in this text go back to US10112926B2 (priority 2014, dated 2018).

Structures can show the parent of a compound that is named as a salt. Where only a bound is given, the exact number is not on record here.

In general, IC50 refers to the concentration at which inhibition is half-maximal.

Assay [1] concerns the target Vps34 (Homo sapiens (Human), UniProt Q8NEB9). Particulars: read-out: Assay C VPS34 IC50.
In assay [2] the target is PI 4-kinase beta (Homo sapiens (Human), UniProt Q9UBF8). To be noted: read-out: Assay D PI4Kβ IC50.
PI 4-kinase beta, sequence (Q9UBF8 whole entry): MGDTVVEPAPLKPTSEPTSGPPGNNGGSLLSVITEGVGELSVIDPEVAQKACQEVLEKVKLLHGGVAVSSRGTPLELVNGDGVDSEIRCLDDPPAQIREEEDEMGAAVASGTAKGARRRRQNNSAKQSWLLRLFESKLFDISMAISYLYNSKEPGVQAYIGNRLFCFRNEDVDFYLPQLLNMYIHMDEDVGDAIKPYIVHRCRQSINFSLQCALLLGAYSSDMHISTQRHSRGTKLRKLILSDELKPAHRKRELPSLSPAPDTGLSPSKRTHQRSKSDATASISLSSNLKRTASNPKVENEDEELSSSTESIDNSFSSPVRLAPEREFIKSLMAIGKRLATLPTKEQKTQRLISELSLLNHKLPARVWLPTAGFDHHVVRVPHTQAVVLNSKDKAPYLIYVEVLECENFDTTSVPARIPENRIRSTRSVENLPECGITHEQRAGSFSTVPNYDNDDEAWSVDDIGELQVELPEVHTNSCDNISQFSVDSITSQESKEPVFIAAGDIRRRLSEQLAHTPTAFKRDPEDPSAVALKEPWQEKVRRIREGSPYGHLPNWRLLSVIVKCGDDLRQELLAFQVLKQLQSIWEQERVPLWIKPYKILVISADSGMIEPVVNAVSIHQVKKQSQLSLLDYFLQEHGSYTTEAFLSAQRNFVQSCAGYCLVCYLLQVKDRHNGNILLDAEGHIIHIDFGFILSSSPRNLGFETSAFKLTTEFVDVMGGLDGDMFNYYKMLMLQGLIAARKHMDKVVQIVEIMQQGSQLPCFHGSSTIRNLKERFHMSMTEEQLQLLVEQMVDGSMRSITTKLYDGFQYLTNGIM

Vps34, sequence (Q8NEB9 whole entry): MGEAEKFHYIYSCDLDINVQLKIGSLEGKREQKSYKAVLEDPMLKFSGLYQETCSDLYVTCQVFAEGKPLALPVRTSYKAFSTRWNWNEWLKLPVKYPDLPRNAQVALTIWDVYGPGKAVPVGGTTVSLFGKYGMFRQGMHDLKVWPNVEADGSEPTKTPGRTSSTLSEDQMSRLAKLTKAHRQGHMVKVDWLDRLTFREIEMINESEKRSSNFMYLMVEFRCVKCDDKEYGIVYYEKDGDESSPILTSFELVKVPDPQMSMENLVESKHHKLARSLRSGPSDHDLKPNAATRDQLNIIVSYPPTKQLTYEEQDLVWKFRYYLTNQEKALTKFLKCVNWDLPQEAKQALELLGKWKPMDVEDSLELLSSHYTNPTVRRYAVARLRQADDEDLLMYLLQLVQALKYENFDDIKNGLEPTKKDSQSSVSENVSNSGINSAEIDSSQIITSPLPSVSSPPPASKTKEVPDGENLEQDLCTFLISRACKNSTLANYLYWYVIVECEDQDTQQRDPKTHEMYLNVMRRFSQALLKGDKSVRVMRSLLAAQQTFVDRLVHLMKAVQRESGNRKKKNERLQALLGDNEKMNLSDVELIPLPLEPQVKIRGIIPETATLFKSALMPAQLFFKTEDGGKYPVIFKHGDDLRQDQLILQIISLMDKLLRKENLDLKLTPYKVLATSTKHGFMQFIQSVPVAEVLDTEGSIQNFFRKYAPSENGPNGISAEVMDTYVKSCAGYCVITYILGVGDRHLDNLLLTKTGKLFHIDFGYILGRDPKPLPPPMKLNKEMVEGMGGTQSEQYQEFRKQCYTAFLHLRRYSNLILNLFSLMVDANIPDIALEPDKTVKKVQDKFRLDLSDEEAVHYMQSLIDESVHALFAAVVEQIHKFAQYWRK

With `Cc1noc(-c2cc(-c3cc(S(=O)(=O)NCC(C)(C)O)c(F)cc3C)cnc2N)n1` [Example 85, 5-(6-Amino-5-(3-methyl-1,2,4-oxadiazol-5-yl)pyridin-3-yl)-2-fluoro-N-(2-hydroxy-2-methylpropyl)-4-methylbenzenesulfonamide], the 50% inhibitory concentration (IC50) in assay [1] and in assay [2] was more than 10 µM in each case.

As to `Cc1cc(-c2cc(-c3cc(S(=O)(=O)N4CCNC(=O)C4)ccc3C)cnc2N)on1` [Example 19.17, 4-((3-(6-amino-5-(3-methylisoxazol-5-yl)pyridin-3-yl)-4-methylphenyl)sulfonyl) piperazin-2-one trifluoroacetic acid salt], the IC50 in assay [2] came to 1.4 µM.

For `Cc1ncc(-c2cc(-c3cc(S(=O)(=O)NCC(C)(C)CO)ccc3C)cnc2N)o1` [Example 104.2, 3-(6-amino-5-(2-methyloxazol-5-yl)pyridin-3-yl)-N-(3-hydroxy-2,2-dimethylpropyl)-4-methylbenzenesulfon-amide], in assay [2], the IC50 stood at 1.1 µM.

`Cc1noc(-c2cc(-c3cc(S(=O)(=O)NC4CC(F)(F)C4)ccc3C)cnc2N)n1` [Example 37.17, 3-(6-Amino-5-(3-methyl-1,2,4-oxadiazol-5-yl)pyridin-3-yl)-N-(3,3-difluorocyclobutyl)-4-methylbenzenesulfonamide]: the concentration for half-maximal inhibition (IC50) in assay [1] was more than 10 µM; in assay [2] it was 8.6 µM.

As for `Cc1ncc(-c2cc(-c3cc(S(=O)(=O)NCC4CC4)ccc3C)cnc2N)o1` [Example 104.12, 3-(6-amino-5-(2-methyloxazol-5-yl)pyridin-3-yl)-N-(cyclopropylmethyl)-4-methylbenzenesulfon-amide], the IC50 in assay [2] is 2.1 µM.

Take `Cc1cc(-c2cc(-c3cc(S(=O)(=O)N4CC(CO)C4)ccc3C)cnc2N)on1` [Example 37.12, (1-((3-(6-Amino-5-(3-methylisoxazol-5-yl)pyridin-3-yl)-4-methylphenyl)sulfonyl)azetidin-3-yl)methanol]: the IC50 is more than 10 µM in assay [1] and 3.4 µM in assay [2].

For the molecule `Cc1noc(-c2cc(-c3cc(S(=O)(=O)NO[C@H]4C[C@H](O)C4)ccc3C)cnc2N)n1` [Example 55, trans-3-(6-Amino-5-(3-methyl-1,2,4-oxadiazol-5-yl)pyridin-3-yl)-N-(3-hydroxycyclobutoxy)-4-methylbenzenesulfonamide], the IC50 is more than 10 µM in assay [1] and 4.7 µM in assay [2].

For the molecule `Cc1ccc(S(=O)(=O)NCCC(C)(C)O)cc1-c1cnc(N)c(-c2cnn(CC(F)(F)F)c2)c1` [Example 3, 3-(6-Amino-5-(1-(2,2,2-trifluoroethyl)-1H-pyrazol-4-yl)pyridin-3-yl)-N-(3-hydroxy-3-methylbutyl)-4-methylbenzenesulfonamide], the IC50 in assay [1] was more than 9.1 µM; in assay [2], 1.08 µM.

On to `Cc1noc(-c2cc(-c3cc(S(=O)(=O)NCC(C)(F)F)ccc3C)cnc2N)n1` [Example 37.38, 3-(6-Amino-5-(3-methyl-1,2,4-oxadiazol-5-yl)pyridin-3-yl)-N-(2,2-difluoropropyl)-4-methylbenzenesulfonamide], for which the IC50 in assay [2] was 7.5 µM.

On to `Cc1noc(-c2cc(-c3cc(S(=O)(=O)NC4CCN(C(C)C)CC4)ccc3C)cnc2N)n1` [Example 37.34, 3-(6-Amino-5-(3-methyl-1,2,4-oxadiazol-5-yl)pyridin-3-yl)-N-(1-isopropylpiperidin-4-yl)-4-methylbenzenesulfonamide], for which the 50% inhibitory concentration (IC50) in assay [2] was more than 10 µM.

For the molecule `Cc1cc(-c2cc(-c3cc(S(=O)(=O)N4CC5(CCOC5)C4)ccc3C)cnc2N)on1` [Example 19.1, 5-(5-(6-oxa-2-azaspiro[3.4]octan-2-ylsulfonyl)-2-methylphenyl)-3-(3-methylisoxazol-5-yl)pyridin-2-amine trifluoroacetic acid salt], the IC50 in assay [2] was found to be 4 µM.

In the case of `Cc1noc(-c2cc(-c3cc(S(=O)(=O)NC[C@H]4CCCO4)ccc3C)cnc2N)n1` [Example 37.5, (R)-3-(6-Amino-5-(3-methyl-1,2,4-oxadiazol-5-yl)pyridin-3-yl)-4-methyl-N-((tetrahydrofuran-2-yl)methyl)benzenesulfonamide], in assay [2], the IC50 was 8 µM.

On to `Cc1ccc(S(=O)(=O)NCC(C)(C)O)cc1-c1cnc(N)c(-c2ccn(C)c2)c1` [Example 58, 3-(6-Amino-5-(1-methyl-1H-pyrrol-3-yl)pyridin-3-yl)-N-(2-hydroxy-2-methylpropyl)-4-methylbenzenesulfonamide hydrochloride], for which the IC50 in assay [2] was determined as 3.2 µM.

Turning to `Cc1cc(-c2cc(-c3cc(S(=O)(=O)N4CCC[C@H]4CO)ccc3C)cnc2N)on1` [Example 19.15, (S)-(1-((3-(6-amino-5-(3-methylisoxazol-5-yl)pyridin-3-yl)-4-methylphenyl)sulfonyl)pyrrolidin-2-yl)methanol trifluoroacetic acid salt], the 50% inhibitory concentration (IC50) in assay [2] came out at 0.9 µM.

On to `Cc1noc(-c2cc(-c3cc(S(N)(=O)=O)ccc3C)cnc2N)n1` [Example 75, 3-(6-Amino-5-(3-methyl-1,2,4-oxadiazol-5-yl)pyridin-3-yl)-4-methylbenzenesulfonamide], for which the IC50 in assay [2] is more than 10 µM.

With `COCC1CCN(S(=O)(=O)c2ccc(C)c(-c3cnc(N)c(-c4cc(C)no4)c3)c2)CC1` [Example 19.18, 5-(5-((4-(methoxymethyl)piperidin-1-yl)sulfonyl)-2-methylphenyl)-3-(3-methylisoxazol-5-yl)pyridin-2-amine trifluoroacetic acid salt], the IC50 in assay [2] was found to be 3.8 µM.

For the molecule `Cc1noc(-c2cc(-c3cc(S(=O)(=O)NC(CO)C4CCOC4)ccc3C)cnc2N)n1` (stereo not drawn) [Example 37.21, 3-(6-Amino-5-(3-methyl-1,2,4-oxadiazol-5-yl)pyridin-3-yl)-N-(2-hydroxy-1-(tetrahydrofuran-3-yl)ethyl)-4-methylbenzenesulfonamide], in assay [2], the IC50 is more than 10 µM.

For the molecule `Cc1cc(-c2cc(-c3cc(S(=O)(=O)N4CCCC4(C)C)ccc3C)cnc2N)on1` [Example 19.9, 5-(5-((2,2-dimethylpyrrolidin-1-yl)sulfonyl)-2-methylphenyl)-3-(3-methylisoxazol-5-yl)pyridin-2-amine trifluoroacetic acid salt], the IC50 in assay [2] came to 1.9 µM.

As to `Cc1ncc(-c2cc(-c3cc(S(=O)(=O)NCCO)ccc3C)cnc2N)o1` [Example 104.5, 3-(6-amino-5-(2-methyloxazol-5-yl)pyridin-3-yl)-N-(2-hydroxyethyl)-4-methylbenzenesulfon-amide], the half-maximal inhibitory concentration (IC50) in assay [2] amounted to 3.1 µM.

As to `COC[C@@H]1COCCN1S(=O)(=O)c1ccc(C)c(-c2cnc(N)c(-c3cc(C)no3)c2)c1` [Example 19.20, (R)-5-(5-((3-(methoxymethyl)morpho-lino)sulfonyl)-2-methylphenyl)-3-(3-methylisoxazol-5-yl)pyridin-2-amine trifluoroacetic acid salt], the IC50 in assay [2] is 4.2 µM.

Take `COC1(C)CN(S(=O)(=O)c2ccc(C)c(-c3cnc(N)c(-c4cc(C)no4)c3)c2)C1` [Example 37.20, 5-(5-((3-Methoxy-3-methylazetidin-yl)sulfonyl)-2-methylphenyl)-3-(3-methylisoxazol-5-yl)pyridin-2-amine]: the IC50 in assay [2] was determined as 5.1 µM.

Turning to `Cc1cc(-c2cc(-c3cc(S(=O)(=O)NCC4(CO)CCOCC4)ccc3C)cnc2N)on1` [Example 37.1, 3-(6-Amino-5-(3-methylisoxazol-5-yl)pyridin-3-yl)-N-((4-(hydroxymethyl)tetrahydro-2H-pyran-4-yl)methyl)-4-methylbenzenesulfonamide], the half-inhibitory concentration (IC50) in assay [2] stood at 3.5 µM.

Consider `Cc1noc(-c2cc(-c3cc(S(=O)(=O)N4CC[C@H](O)C4)ccc3C)cnc2N)n1` [Example 37.32, (S)-1-((3-(6-Amino-5-(3-methyl-1,2,4-oxadiazol-5-yl)pyridin-3-yl)-4-methylphenyl)sulfonyl)pyrrolidin-3-ol hydrochloride], for which the IC50 in assay [2] is 8.5 µM.

In the case of `Cc1cc(-c2cc(-c3cc(S(=O)(=O)NCC4(CO)COC4)ccc3C)cnc2N)on1` [Example 50, 3-(6-Amino-5-(3-methylisoxazol-5-yl)pyridin-3-yl)-N-((3-(hydroxymethyl)oxetan-3-yl)methyl)-4-methylbenzenesulfonamide], the IC50 in assay [1] was more than 10 µM.

For `Cc1ccc(S(=O)(=O)NCC(C)(C)O)cc1-c1cnc(N)c(-c2cnn(C)c2C)c1` [Example 61, 3-(6-Amino-5-(1,5-dimethyl-1H-pyrazol-4-yl)pyridin-3-yl)-N-(2-hydroxy-2-methylpropyl)-4-methylbenzenesulfonamide], in assay [1], the IC50 is more than 10 µM.

Take `Cc1cnc(-c2cc(-c3cc(S(=O)(=O)NCC(C)(C)O)ccc3C)cnc2N)s1` [Example 90, 3-(6-Amino-5-(5-methylthiazol-2-yl)pyridin-3-yl)-N-(2-hydroxy-2-methylpropyl)-4-methylbenzenesulfonamide]: the half-inhibitory concentration (IC50) in assay [1] is more than 10 µM.

As for `Cc1cc(-c2cc(-c3cc(S(=O)(=O)NCCC4(O)CCCC4)ccc3C)cnc2N)on1` [Example 37.16, 3-(6-Amino-5-(3-methylisoxazol-5-yl)pyridin-3-yl)-N-(2-(1-hydroxycyclopentyl)ethyl)-4-methylbenzenesulfonamide], in assay [1], the IC50 was more than 10 µM.

With `Cc1cc(-c2cc(-c3cc(S(=O)(=O)N4CCOC[C@@H]4C)ccc3C)cnc2N)on1` [Example 19.5, (S)-5-(2-methyl-5-((3-methylmorpholino)sulfon-yl)phenyl)-3-(3-methylisoxazol-5-yl)pyridin-2-amine trifluoroacetic acid salt], in assay [1], the half-maximal inhibitory concentration (IC50) was more than 10 µM.

For the molecule `Cc1ccc(S(=O)(=O)NCC(C)(C)O)cc1-c1cnc(N)c(-c2cc(C(=O)N3CCOCC3)no2)c1` [Example 42, 3-(6-Amino-5-(3-(morpholine-4-carbonyl)isoxazol-5-yl)pyridin-3-yl)-N-(2-hydroxy-2-methylpropyl)-4-methylbenzenesulfonamide], the IC50 in assay [2] is 2.9 µM.

`Cc1ncc(-c2cc(-c3cc(S(=O)(=O)NCC(F)F)ccc3C)cnc2N)o1` [Example 104.10, 3-(6-amino-5-(2-methyloxazol-5-yl)pyridin-3-yl)-N-(2,2-difluoroethyl)-4-methylbenzenesulfon-amide]: the IC50 in assay [1] turned out to be 1.5 µM.

As for `CONS(=O)(=O)c1ccc(C)c(-c2cnc(N)c(-c3nc(C)no3)c2)c1` [Example 46, 3-(6-Amino-5-(3-methyl-1,2,4-oxadiazol-5-yl)pyridin-3-yl)-N-methoxy-4-methylbenzenesulfonamide], the IC50 in assay [2] was more than 10 µM.
